Results reported in article PMC7419507, “In vitro Cas9-assisted editing of modular polyketide synthase genes to produce desired natural product derivatives” (Nature Communications, 2020).
Several values for one entry are separate records, joined by “and”; a condition that tells them apart may be missing. Equal entries are not always repeated.

Legend:
[1] = test system: human ovarian adenocarcinoma SKOV-3 cells; assay: Cytotoxicity assay (CellTiter-Glo, 72 h), SKOV-3; type: cell-based; settings: raw replicate data
Outline: (§1)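 Following 4 h attachment at 1000 cells/well, the three lines received serially halved compound doses (DMSO 0.5%) for 72 h at 37 °C under 5% CO2, with cell viability then determined by CellTiter-Glo.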

[2] = Cytotoxicity assay (CellTiter-Glo, 72 h), SKOV-3; type: cell-based, human; settings: human, raw replicate data, read-out: SKOV3 viability (%)
Outline: as §1

[3] = test system: Jurkat, SKOV-3 and MESO-1 cells; assay: Cytotoxicity assay, statements for all tested cell lines together; type: cell-based; settings: Jurkat, SKOV-3 and MESO-1 cells, 72 h
Outline: as §1

[4] = Cytotoxicity assay (CellTiter-Glo, 72 h), MESO-1; type: cell-based; settings: human, MESO-1 malignant pleural mesothelioma cells, raw replicate data, read-out: MESO1 viability (%)
Outline: as §1

[5] = test system: malignant pleural mesothelioma MESO-1 cells; assay: Cytotoxicity assay (CellTiter-Glo, 72 h), MESO-1; type: cell-based; settings: raw replicate data
Outline: as §1

[6] = target: T1, FKBP12 and mTOR (Homo sapiens, UniProt P42345+P62942); assay: Fluoppi analysis: induction of FKBP12-mTOR complex formation in transfected HeLa cells; type: cell-based; settings: for Foci intensity: raw data, one replicate per line
T1 construct: host or cells: HeLa cells
Outline: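 Complex formation read as fluorescent foci: foci intensity over total per-cell intensity, imaged (×20, 9 fields/well) after fixation and Hoechst stain, giving EC50. Cells: HeLa transiently expressing hAG-mTOR and Ash-FKBP12, exposed to compound concentrations for 1 h at 37 °C.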

T1 sequence (P42345 2025-2114 limits assumed): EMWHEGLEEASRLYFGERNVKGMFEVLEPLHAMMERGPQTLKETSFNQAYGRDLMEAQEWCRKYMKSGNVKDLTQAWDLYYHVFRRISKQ
T1 sequence (P62942 whole entry): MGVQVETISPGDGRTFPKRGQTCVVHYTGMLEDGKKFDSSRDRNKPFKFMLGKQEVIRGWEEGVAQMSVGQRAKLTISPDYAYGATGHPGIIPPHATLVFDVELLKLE

- PPI-inducing (binding enhancing) activity between FKBP12 and mTOR compared with rapamycin (1), in words ([6]; Fluoppi): relatively weaker activities
- EC50 ([6]; Fluoppi, HeLa cells, 1 h treatment, three independent biological replicates, read-out: EC50, induction of the formation of FKBP-mTOR complex): 58 nM
- Foci intensity ([6]; conc 9.53674e-5 uM): 0.008575 and 0.02543 and 0.01782
- Foci intensity ([6]; conc 0.000190735 uM): 0.01164 and 0.0145 and 0.01487
- Foci intensity ([6]; conc 0.00038147 uM): 0.01856 and 0.01046 and 0.003947
- Foci intensity ([6]; conc 0.000762939 uM): 0.01936 and 0.005776 and 0.02867
- Foci intensity ([6]; conc 0.00152588 uM): 0.005895 and 0.00599 and 0.02244
- Foci intensity ([6]; conc 0.00305176 uM): 0.01605 and 0.01212 and 0.008772
- Foci intensity ([6]; conc 0.00610352 uM): 0.0303 and 0.01224 and 0.02086
- Foci intensity ([6]; conc 0.012207 uM): 0.01472 and 0.01188 and 0.01532
- Foci intensity ([6]; conc 0.0244141 uM): 0.02138 and 0.01399 and 0.02345
- Foci intensity ([6]; conc 0.0488281 uM): 0.1099 and 0.1021 and 0.1573
- Foci intensity ([6]; conc 0.0976562 uM): 0.2733 and 0.3147 and 0.3434
- Foci intensity ([6]; conc 0.195312 uM): 0.354 and 0.3591 and 0.4502
- Foci intensity ([6]; conc 0.390625 uM): 0.4005 and 0.429 and 0.3736
- Foci intensity ([6]; conc 0.78125 uM): 0.395 and 0.3804 and 0.4169
- Foci intensity ([6]; conc 1.5625 uM): 0.3124 and 0.2927 and 0.3257
- Foci intensity ([6]; conc 3.125 uM): 0.3411 and 0.3385 and 0.2558
- Foci intensity ([6]; conc 6.25 uM): 0.3119 and 0.3692 and 0.3726
- Foci intensity ([6]; conc 12.5 uM): 0.3802 and 0.3948 and 0.3075
- Foci intensity ([6]; conc 25 uM): 0.3555 and 0.3578 and 0.2982
- Foci intensity ([6]; conc 50 uM): 0.2808 and 0.2653 and 0.2658
Structure (SMILES): CO[C@@H]1C[C@H](C[C@@H](C)[C@@H]2CC(=O)[C@H](C)/C=C(\C)[C@@H](O)[C@@H](OC)C(=O)[C@H](C)C[C@H](C)/C=C/C=C/C=C(\C)[C@H](O)C[C@@H]3CC[C@@H](C)[C@@](O)(O3)C(=O)C(=O)N3CCCC[C@H]3C(=O)O2)CC[C@H]1O [Compound 17, (16R)-16-O-demethyl rapamycin]
- SKOV3 viability (%) ([1]; conc 9.53674e-5 uM): 109.3% and 114.5%
- SKOV3 viability (%) ([1]; conc 0.000190735 uM): 90.8% and 99.6%
- SKOV3 viability (%) ([1]; conc 0.00038147 uM): 115.4% and 113.9%
- SKOV3 viability (%) ([1]; conc 0.000762939 uM): 109.0% and 102.3%
- SKOV3 viability (%) ([1]; conc 0.00152588 uM): 112.3% and 106.1%
- SKOV3 viability (%) ([1]; conc 0.00305176 uM): 107.9%
- SKOV3 viability (%) ([1]; conc 0.00610352 uM): 101.8% and 106.6%
- SKOV3 viability (%) ([1]; conc 0.012207 uM): 96.6% and 104.0%
- SKOV3 viability (%) ([1]; conc 0.0244141 uM): 95.8%
- SKOV3 viability (%) ([1]; conc 0.0488281 uM): 79.4% and 88.5%
- SKOV3 viability (%) ([1]; conc 0.0976562 uM): 86.2% and 76.7%
- SKOV3 viability (%) ([1]; conc 0.195312 uM): 69.8% and 72.4%
- SKOV3 viability (%) ([1]; conc 0.390625 uM): 81.8% and 79.5%
- SKOV3 viability (%) ([1]; conc 0.78125 uM): 70.7%
- SKOV3 viability (%) ([1]; conc 1.5625 uM): 65.2% and 67.1%
- SKOV3 viability (%) ([1]; conc 3.125 uM): 69.1%
- SKOV3 viability (%) ([1]; conc 6.25 uM): 64.7% and 66.1%
- SKOV3 viability (%) ([1]; conc 12.5 uM): 62.1% and 61.3%
- SKOV3 viability (%) ([1]; conc 25 uM): 65.7% and 67.6%
- SKOV3 viability (%) ([1]; conc 50 uM): 57.2% and 61.6%
- viability at 72 h, 9.53674e-05 uM ([2]; SKOV-3 cells (ovarian adenocarcinoma), conc 9.53674e-5 uM): 108%
- viability at 72 h, 0.000190735 uM ([2]; SKOV-3 cells (ovarian adenocarcinoma), conc 0.000190735 uM): 88.6%
- viability at 72 h, 0.00038147 uM ([2]; SKOV-3 cells (ovarian adenocarcinoma), conc 0.00038147 uM): 109%
- viability at 72 h, 0.000762939 uM ([2]; SKOV-3 cells (ovarian adenocarcinoma), conc 0.000762939 uM): 108%
- viability at 72 h, 0.00152588 uM ([2]; SKOV-3 cells (ovarian adenocarcinoma), conc 0.00152588 uM): 108%
- viability at 72 h, 0.00305176 uM ([2]; SKOV-3 cells (ovarian adenocarcinoma), conc 0.00305176 uM): 107%
- viability at 72 h, 0.00610352 uM ([2]; SKOV-3 cells (ovarian adenocarcinoma), conc 0.00610352 uM): 103%
- viability at 72 h, 0.012207 uM ([2]; SKOV-3 cells (ovarian adenocarcinoma), conc 0.012207 uM): 97.7%
- viability at 72 h, 0.0244141 uM ([2]; SKOV-3 cells (ovarian adenocarcinoma), conc 0.0244141 uM): 95.9%
- viability at 72 h, 0.0488281 uM ([2]; SKOV-3 cells (ovarian adenocarcinoma), conc 0.0488281 uM): 84.3%
- viability at 72 h, 0.0976562 uM ([2]; SKOV-3 cells (ovarian adenocarcinoma), conc 0.0976562 uM): 77.9%
- viability at 72 h, 0.195312 uM ([2]; SKOV-3 cells (ovarian adenocarcinoma), conc 0.195312 uM): 70%
- viability at 72 h, 0.390625 uM ([2]; SKOV-3 cells (ovarian adenocarcinoma), conc 0.390625 uM): 78.2%
- viability at 72 h, 12.5 uM ([2]; SKOV-3 cells (ovarian adenocarcinoma), conc 12.5 uM): 65%
- viability at 72 h, 25 uM ([2]; SKOV-3 cells (ovarian adenocarcinoma), conc 25 uM): 64.3%
- viability at 72 h, 50 uM ([2]; SKOV-3 cells (ovarian adenocarcinoma), conc 50 uM): 62.5%
- viability at 72 h, 0.78125 uM ([2]; SKOV-3 ovarian adenocarcinoma cells, conc 0.78125 uM): 71.6%
- viability at 72 h, 1.5625 uM ([2]; SKOV-3 ovarian adenocarcinoma cells, conc 1.5625 uM): 72.2%
- viability at 72 h, 3.125 uM ([2]; SKOV-3 ovarian adenocarcinoma cells, conc 3.125 uM): 67.3%
- viability at 72 h, 6.25 uM ([2]; SKOV-3 ovarian adenocarcinoma cells, conc 6.25 uM): 66.2%
- Effect on cell viability, in words [3]: slightly suppressed the cell viabilities
- viability at 72 h, 9.53674e-05 uM ([4]; conc 9.53674e-5 uM): 103%
- viability at 72 h, 0.000190735 uM ([4]; conc 0.000190735 uM): 89.1%
- viability at 72 h, 0.00038147 uM ([4]; conc 0.00038147 uM): 100%
- viability at 72 h, 0.000762939 uM ([4]; conc 0.000762939 uM): 97.1%
- viability at 72 h, 0.00152588 uM ([4]; conc 0.00152588 uM): 98.3%
- viability at 72 h, 0.00305176 uM ([4]; conc 0.00305176 uM): 92.9%
- viability at 72 h, 0.00610352 uM ([4]; conc 0.00610352 uM): 89.6%
- viability at 72 h, 0.012207 uM ([4]; conc 0.012207 uM): 83.5%
- viability at 72 h, 0.0244141 uM ([4]; conc 0.0244141 uM): 86.9%
- viability at 72 h, 0.0488281 uM ([4]; conc 0.0488281 uM): 85.1%
- viability at 72 h, 0.0976562 uM ([4]; conc 0.0976562 uM): 78.9%
- viability at 72 h, 0.195312 uM ([4]; conc 0.195312 uM): 71.5%
- viability at 72 h, 0.390625 uM ([4]; conc 0.390625 uM): 79.6%
- viability at 72 h, 0.78125 uM ([4]; conc 0.78125 uM): 73.1%
- viability at 72 h, 1.5625 uM ([4]; conc 1.5625 uM): 71.7%
- viability at 72 h, 3.125 uM ([4]; conc 3.125 uM): 72.9%
- viability at 72 h, 6.25 uM ([4]; conc 6.25 uM): 74.2%
- viability at 72 h, 12.5 uM ([4]; conc 12.5 uM): 72.1%
- viability at 72 h, 25 uM ([4]; conc 25 uM): 67.4%
- viability at 72 h, 50 uM ([4]; conc 50 uM): 61.5%
- MESO1 viability (%) ([5]; conc 9.53674e-5 uM): 101.2% and 92.1%
- MESO1 viability (%) ([5]; conc 0.000190735 uM): 91.6% and 98.7%
- MESO1 viability (%) ([5]; conc 0.00038147 uM): 104.8% and 96.5%
- MESO1 viability (%) ([5]; conc 0.000762939 uM): 94.3% and 95.5%
- MESO1 viability (%) ([5]; conc 0.00152588 uM): 93.6% and 93.5%
- MESO1 viability (%) ([5]; conc 0.00305176 uM): 90.4% and 91.1%
- MESO1 viability (%) ([5]; conc 0.00610352 uM): 88.7% and 90.9%
- MESO1 viability (%) ([5]; conc 0.012207 uM): 91.2%
- MESO1 viability (%) ([5]; conc 0.0244141 uM): 80.2% and 88.3%
- MESO1 viability (%) ([5]; conc 0.0488281 uM): 80.6% and 75.2%
- MESO1 viability (%) ([5]; conc 0.0976562 uM): 77.6% and 79.5%
- MESO1 viability (%) ([5]; conc 0.195312 uM): 74.7% and 70.5%
- MESO1 viability (%) ([5]; conc 0.390625 uM): 76.8% and 75.4%
- MESO1 viability (%) ([5]; conc 0.78125 uM): 70.1% and 72.2%
- MESO1 viability (%) ([5]; conc 1.5625 uM): 74.3% and 71.9%
- MESO1 viability (%) ([5]; conc 3.125 uM): 66.5% and 67.5%
- MESO1 viability (%) ([5]; conc 6.25 uM): 73.9% and 73.5%
- MESO1 viability (%) ([5]; conc 12.5 uM): 65.3% and 66.5%
- MESO1 viability (%) ([5]; conc 25 uM): 64.8% and 66.6%
- MESO1 viability (%) ([5]; conc 50 uM): 62.7% and 65.8%
